Columns and labels:
Experiment in all cases: microbe, parasite or virus in culture
[1] = system: ABC clinical isolates with SUL-DUR MIC > 4 µg/mL; type: cell-based, Acinetobacter baumannii-calcoaceticus complex
Protocol: (§1) The following report describes the genomic analysis of these isolates for likely resistance mechanisms. Biochemical analysis of purified PBP3 and phenotypic analyses of both clinical and isogenic strains were also conducted to determine the relative impact of key resistance determinants to SUL-DUR antibacterial activity.
(§2) Antimicrobial susceptibility testing was performed using broth microdilution following standardized methods established by the Clinical Laboratory Standards Institute (CLSI) ([35], [36]). […] MIC values were interpreted using CLSI breakpoints for all antimicrobial agents except those for which CLSI breakpoints are not available ([35]). SUL-DUR was tested as twofold dilutions of sulbactam in combination with a fixed concentration of 4 µg/mL durlobactam ([35]).

[2] = system: A. baumannii clinical isolates; type: cell-based
Protocol: as §1, §2

[3] = system: A. nosocomialis clinical isolate; type: cell-based; conditions: isolate ARC7023 (IHMA 2118812), France, BSI, 2019
Protocol: as §1, §2

[4] = system: A. pittii clinical isolates; type: cell-based
Protocol: as §1, §2

NCC[C@H](O)C(=O)N[C@@H]1C[C@H](N)[C@@H](O[C@H]2O[C@H](CN)[C@@H](O)[C@H](O)[C@H]2O)[C@H](O)[C@H]1O[C@H]1O[C@H](CO)[C@@H](O)[C@H](N)[C@H]1O [AMK]
MIC50 [1]: >64 µg/mL
MIC90 [1]: >64 µg/mL
MIC Max [1]: >64 µg/mL
MIC Min [1]: 2 µg/mL
%NS (% non-susceptibility) ([1]; 64 non-clonal ABC isolates, 2023 CLSI breakpoints plus FDA breakpoint of 4 µg/mL for SUL-DUR): 75%
MIC ([2]; isolate ARC6644 (IHMA 1420327), Mexico, UTI, 2016): >64 µg/mL
MIC ([2]; isolate ARC6645 (IHMA 1435703), France, UTI, 2016): 2 µg/mL
MIC ([2]; isolate ARC6646 (IHMA 1484127), United States, RTI, 2016): >64 µg/mL
MIC ([2]; isolate ARC6647 (IHMA 1386786), Argentina, RTI, 2016): >64 µg/mL
MIC ([2]; isolate ARC6648 (IHMA 1407634), Spain, RTI, 2016): 4 µg/mL
MIC ([2]; isolate ARC6650 (IHMA 1457337), Argentina, RTI, 2016): 16 µg/mL
MIC ([2]; isolate ARC6652 (IHMA 1465642), Belgium, RTI, 2016): 4 µg/mL
MIC ([2]; isolate ARC6653 (IHMA 1308777), Vietnam, RTI, 2016): >64 µg/mL
MIC ([2]; isolate ARC6799 (IHMA 1562935), Spain, UTI, 2017): 64 µg/mL
MIC ([2]; isolate ARC6800 (IHMA 1557526), Turkey, RTI, 2017): >64 µg/mL
MIC ([2]; isolate ARC6801 (IHMA 1662094), Thailand, RTI, 2017): 32 µg/mL
MIC ([2]; isolate ARC6802 (IHMA 1557073), Spain, UTI, 2017): >64 µg/mL
MIC ([2]; isolate ARC6803 (IHMA 1589408), Belgium, UTI, 2017): 4 µg/mL
MIC ([2]; isolate ARC6805 (IHMA 1558650), United States, RTI, 2017): >64 µg/mL
MIC ([2]; isolate ARC6808 (IHMA 1557168), Spain, RTI, 2017): 2 µg/mL
MIC ([2]; isolate ARC6809 (IHMA 1699528), Guatemala, RTI, 2017): 32 µg/mL
MIC ([2]; isolate ARC6810 (IHMA 1699548), Guatemala, RTI, 2017): >64 µg/mL
MIC ([2]; isolate ARC6812 (IHMA 1699530), Guatemala, RTI, 2017): 4 µg/mL
MIC ([2]; isolate ARC6813 (IHMA 1699543), Guatemala, UTI, 2017): 32 µg/mL
MIC ([2]; isolate ARC6814 (IHMA 1699512), Guatemala, RTI, 2017): >64 µg/mL
MIC ([2]; isolate ARC6815 (IHMA 1699513), Guatemala, RTI, 2017): 64 µg/mL
MIC ([2]; isolate ARC6816 (IHMA 1699521), Guatemala, RTI, 2017): >64 µg/mL
MIC ([2]; isolate ARC6817 (IHMA 1699523), Guatemala, RTI, 2017): 16 µg/mL
MIC ([2]; isolate ARC6818 (IHMA 1683261), Thailand, RTI, 2017): 2 µg/mL
MIC ([2]; isolate ARC6819 (IHMA 1683267), Thailand, RTI, 2017): >64 µg/mL
MIC ([2]; isolate ARC6820 (IHMA 1647876), Argentina, RTI, 2017): 4 µg/mL
MIC ([2]; isolate ARC6821 (IHMA 1699517), Guatemala, RTI, 2017): 2 µg/mL
MIC ([2]; isolate ARC6822 (IHMA 1637626), Guatemala, RTI, 2017): 8 µg/mL
MIC ([2]; isolate ARC6823 (IHMA 1620872), Greece, SSSI, 2017): >64 µg/mL
MIC ([2]; isolate ARC6824 (IHMA 1625487), Argentina, BSI, 2017): 64 µg/mL
MIC ([2]; isolate ARC6937 (IHMA 1562926), Spain, UTI, 2017): 64 µg/mL
MIC ([2]; isolate ARC6950 (IHMA 1820064), Israel, RTI, 2018): >64 µg/mL
MIC ([2]; isolate ARC6953 (IHMA 1909827), Turkey, IAI, 2018): 8 µg/mL
MIC ([2]; isolate ARC6954 (IHMA 1838192), Guatemala, SSSI, 2018): 16 µg/mL
MIC ([2]; isolate ARC6955 (IHMA 1825425), United States, RTI, 2018): 64 µg/mL
MIC ([2]; isolate ARC7008 (IHMA 2009813), Thailand, BSI, 2019): >64 µg/mL
MIC ([2]; isolate ARC7009 (IHMA 2043611), United States, UTI, 2019): >64 µg/mL
MIC ([2]; isolate ARC7010 (IHMA 2043398), United States, RTI, 2019): >64 µg/mL
MIC ([2]; isolate ARC7011 (IHMA 2104553), Germany, RTI, 2019): >64 µg/mL
MIC ([2]; isolate ARC7012 (IHMA 2010001), Thailand, RTI, 2019): >64 µg/mL
MIC ([2]; isolate ARC7013 (IHMA 1962831), Argentina, RTI, 2019): >64 µg/mL
MIC ([2]; isolate ARC7014 (IHMA 2045328), Guatemala, IAI, 2019): >64 µg/mL
MIC ([2]; isolate ARC7015 (IHMA 2045327), Guatemala, UTI, 2019): 32 µg/mL
MIC ([2]; isolate ARC7016 (IHMA 2148441), Brazil, BSI, 2019): >64 µg/mL
MIC ([2]; isolate ARC7017 (IHMA 2148446), Brazil, BSI, 2019): 64 µg/mL
MIC ([2]; isolate ARC7018 (IHMA 2045454), Guatemala, IAI, 2019): 32 µg/mL
MIC ([2]; isolate ARC7019 (IHMA 2114463), Thailand, RTI, 2019): >64 µg/mL
MIC ([2]; isolate ARC7020 (IHMA 2045326), Guatemala, RTI, 2019): >64 µg/mL
MIC ([2]; isolate ARC7021 (IHMA 1966347), Guatemala, RTI, 2019): 64 µg/mL
MIC ([2]; isolate ARC7022 (IHMA 2045319), Guatemala, IAI, 2019): >64 µg/mL
MIC ([2]; isolate ARC7024 (IHMA 2059448), Turkey, RTI, 2019): >64 µg/mL
MIC ([2]; isolate ARC7025 (IHMA 2002121), Spain, RTI, 2019): 2 µg/mL
MIC ([2]; isolate ARC7026 (IHMA 2104494), Guatemala, BSI, 2019): 64 µg/mL
MIC ([2]; isolate ARC7082 (IHMA 2160640), Belgium, BSI, 2020): >64 µg/mL
MIC ([2]; isolate ARC7083 (IHMA 2163687), United States, RTI, 2020): >64 µg/mL
MIC ([2]; isolate ARC7084 (IHMA 2189596), Germany, RTI, 2020): >64 µg/mL
MIC ([2]; isolate ARC7085 (IHMA 2205747), Guatemala, IAI, 2020): >64 µg/mL
MIC ([2]; isolate ARC7086 (IHMA 2207563), Israel, RTI, 2020): >64 µg/mL
MIC ([2]; isolate ARC7088 (IHMA 2215554), Turkey, BSI, 2020): >64 µg/mL
MIC ([2]; isolate ARC7089 (IHMA 2240345), Argentina, BSI, 2020): 2 µg/mL
MIC ([2]; isolate ARC7090 (IHMA 2244410), Poland, RTI, 2020): >64 µg/mL
MIC ([2]; isolate ARC7091 (IHMA 2244564), Australia, RTI, 2020): 16 µg/mL
MIC ([2]; isolate ARC7092 (IHMA 2258772), United States, BSI, 2020): >64 µg/mL
MIC ([2]; isolate ARC7093 (IHMA 2258783), United States, RTI, 2020): >64 µg/mL
MIC ([2]; isolate ARC7094 (IHMA 2296423), Turkey, RTI, 2020): 64 µg/mL
MIC ([2]; isolate ARC7095 (IHMA 2320843), Turkey, BSI, 2020): >64 µg/mL
MIC ([2]; isolate ARC7156 (IHMA 2455450), Greece, RTI, 2021): >64 µg/mL
MIC ([2]; isolate ARC7158 (IHMA 2523738), Italy, BSI, 2021): >64 µg/mL
MIC ([2]; isolate ARC7159 (IHMA 2456229), Malaysia, RTI, 2021): >64 µg/mL
MIC ([2]; isolate ARC7160 (IHMA 2458626), Thailand, RTI, 2021): >64 µg/mL
MIC ([2]; isolate ARC7161 (IHMA 2429252), Ukraine, RTI, 2021): >64 µg/mL
MIC ([2]; isolate ARC7162 (IHMA 2411847), United States, BSI, 2021): >64 µg/mL
MIC ([2]; isolate ARC7163 (IHMA 2477704), United States, BSI, 2021): >64 µg/mL
MIC [3]: 4 µg/mL
MIC ([4]; isolate ARC6949 (IHMA 1898982), Romania, RTI, 2018): >64 µg/mL
MIC ([4]; isolate ARC6951 (IHMA 1776233), Philippines, RTI, 2018): 32 µg/mL
MIC ([4]; isolate ARC6952 (IHMA 1899008), Romania, RTI, 2018): >64 µg/mL
MIC ([4]; isolate ARC7087 (IHMA 2212062), Colombia, BSI, 2020): 8 µg/mL

Reference: PMC10648852, “Molecular drivers of resistance to sulbactam-durlobactam in contemporary clinical isolates of Acinetobacter baumannii” (Antimicrobial Agents and Chemotherapy, 2023)
